Measurements reported in US9920069B2, “Compounds for treatment of fluoroquinolone-resistant bacteria” (The Board of Trustees of the University of Illinois, priority 2014, dated 2018).
Converted amounts (≈) assume the structure as drawn. Where two headings read alike, the source gives them in different places.

Experiments:
[1] = physchem; details: organic solvent or mixture, thermodynamic from solid
[2] = test system: S. aureus 29213 (WT GyrA and WT ParC); experiment: microbe, parasite or virus in culture; format: cell-based; details: Staphylococcus aureus; WT GyrA and WT ParC; read-out: MIC against S. aureus 29213
Experimental: (§1) Susceptibility testing was performed in triplicate using the microdilution broth method as outlined by the Clinical and Laboratory Standards Institute CLSI^52. MH broth was used.

[3] = physchem; details: pH 7.4 PBS; three replicates ± SEM
Experimental: Enough PBS was added to make a 1 mg/mL solution. Compounds were then assessed by LC-MS and compared to a calibration curve to determine the solubility. […] Data shown is from three independent replicates±SEM. […] Between DMSO additions, the vial was vortexed and sonicated.
The compound was vortexed for ˜30 seconds before being placed into a bath sonicator (Cole Parmer, ultrasonic cleaner) for 1 h. […] The tubes were vortexed again for 30 s before being centrifuged at maximum speed (13,000×g) for 10 minutes. The supernatant was then filtered through a 0.22 μm syringe filter (Millipore Millex MP). […] Three independent replicates of each compound were performed. A calibration curve for each compound was generated from 1-400 μM by dissolving the compound in DMSO and making dilutions of the stock in DMSO. […] The concentration of the samples was calculated based on the calibration curves.

[4] = test system: MRSA clinical isolate SAU.494; experiment: microbe, parasite or virus in culture; format: cell-based, S. aureus; details: Staphylococcus aureus
Experimental: as §1

[5] = test system: MRSA clinical isolate SAU.3021; experiment: MIC, microdilution broth; format: cell-based, S. aureus; details: Staphylococcus aureus, MRSA, read-out: MIC
Experimental: as §1

[6] = test system: MRSA clinical isolate SAU.2996; experiment: MIC, microdilution broth; format: cell-based, S. aureus; details: Staphylococcus aureus, MRSA, read-out: MIC
Experimental: as §1

[7] = test system: MRSA clinical isolate SAU.446; experiment: MIC, microdilution broth; format: cell-based, S. aureus; details: Staphylococcus aureus
Experimental: as §1

[8] = test system: MRSA clinical isolate SAU.419; experiment: MIC, microdilution broth; format: cell-based, S. aureus; details: Staphylococcus aureus, MRSA, read-out: MIC
Experimental: as §1

[9] = test system: MRSA clinical isolate SAU.555; experiment: MIC, microdilution broth; format: cell-based, S. aureus; details: Staphylococcus aureus
Experimental: as §1

[10] = test system: MRSA clinical isolate SAU.3025; experiment: MIC, microdilution broth; format: cell-based, S. aureus; details: Staphylococcus aureus
Experimental: as §1

[11] = test system: MRSA clinical isolate SAU.669; experiment: MIC, microdilution broth; format: cell-based, S. aureus; details: Staphylococcus aureus
Experimental: as §1

[12] = Pharmacokinetic assessment, serum by HPLC; format: in vivo, C57BL/6 mice; details: mouse serum
Experimental: FIG. 13. Pharmacokinetic analysis of DNM, DNM-2, and DNM-3. C57/BL6 mice were treated with 50 mg kg^−1 DNM, DNM-2, or DNM-3 via oral gavage. After the indicated time points (15, 30, 60, 120, 240, and 480 min), mice were sacrificed and the serum concentrations of DNM, DNM-2, and DNM-3 was determined by HPLC.
The animal studies (PK, in vivo toxicity and in vivo efficacy) were carried out in strict accordance with the recommendations in the Guide for the Care and Use of Laboratory Animals of the National Institutes of Health. […] In these studies, 10-12 week old female C57BL/6 mice purchased from Charles River were used. DNM, DNM-2, and DNM-3 were formulated as slurries at 8.3 mg mL^−1 in 25% Cremophor RH40/water (v/v). Before beginning the pharmacokinetic assessment, mice were first tested for their ability to tolerate the DNM, DNM-2, and DNM-3 at 50 mg kg^−1 (p.o.). […] At specified time points, mice were sacrificed and blood was collected, centrifuged, and the serum was frozen at −80° C. until analysis. The proteins in a 50 μL aliquot of serum were precipitated by the addition of 50 μL of acetonitrile and the sample was centrifuged to remove the proteins. Serum concentrations of DNM, DNM-2, and DNM-3 were determined by HPLC. PK parameters were determined using GraphPad Prism Version 5.00 for Windows.

[13] = target: T1, human topoisomerase II (Homo sapiens, UniProt P11388); experiment: Human topoisomerase decatenation assay; format: biochemical; details: lowest inhibiting / highest without significant inhibition
T1 construct: purchased Inspiralis
T1 sequence (P11388 whole entry): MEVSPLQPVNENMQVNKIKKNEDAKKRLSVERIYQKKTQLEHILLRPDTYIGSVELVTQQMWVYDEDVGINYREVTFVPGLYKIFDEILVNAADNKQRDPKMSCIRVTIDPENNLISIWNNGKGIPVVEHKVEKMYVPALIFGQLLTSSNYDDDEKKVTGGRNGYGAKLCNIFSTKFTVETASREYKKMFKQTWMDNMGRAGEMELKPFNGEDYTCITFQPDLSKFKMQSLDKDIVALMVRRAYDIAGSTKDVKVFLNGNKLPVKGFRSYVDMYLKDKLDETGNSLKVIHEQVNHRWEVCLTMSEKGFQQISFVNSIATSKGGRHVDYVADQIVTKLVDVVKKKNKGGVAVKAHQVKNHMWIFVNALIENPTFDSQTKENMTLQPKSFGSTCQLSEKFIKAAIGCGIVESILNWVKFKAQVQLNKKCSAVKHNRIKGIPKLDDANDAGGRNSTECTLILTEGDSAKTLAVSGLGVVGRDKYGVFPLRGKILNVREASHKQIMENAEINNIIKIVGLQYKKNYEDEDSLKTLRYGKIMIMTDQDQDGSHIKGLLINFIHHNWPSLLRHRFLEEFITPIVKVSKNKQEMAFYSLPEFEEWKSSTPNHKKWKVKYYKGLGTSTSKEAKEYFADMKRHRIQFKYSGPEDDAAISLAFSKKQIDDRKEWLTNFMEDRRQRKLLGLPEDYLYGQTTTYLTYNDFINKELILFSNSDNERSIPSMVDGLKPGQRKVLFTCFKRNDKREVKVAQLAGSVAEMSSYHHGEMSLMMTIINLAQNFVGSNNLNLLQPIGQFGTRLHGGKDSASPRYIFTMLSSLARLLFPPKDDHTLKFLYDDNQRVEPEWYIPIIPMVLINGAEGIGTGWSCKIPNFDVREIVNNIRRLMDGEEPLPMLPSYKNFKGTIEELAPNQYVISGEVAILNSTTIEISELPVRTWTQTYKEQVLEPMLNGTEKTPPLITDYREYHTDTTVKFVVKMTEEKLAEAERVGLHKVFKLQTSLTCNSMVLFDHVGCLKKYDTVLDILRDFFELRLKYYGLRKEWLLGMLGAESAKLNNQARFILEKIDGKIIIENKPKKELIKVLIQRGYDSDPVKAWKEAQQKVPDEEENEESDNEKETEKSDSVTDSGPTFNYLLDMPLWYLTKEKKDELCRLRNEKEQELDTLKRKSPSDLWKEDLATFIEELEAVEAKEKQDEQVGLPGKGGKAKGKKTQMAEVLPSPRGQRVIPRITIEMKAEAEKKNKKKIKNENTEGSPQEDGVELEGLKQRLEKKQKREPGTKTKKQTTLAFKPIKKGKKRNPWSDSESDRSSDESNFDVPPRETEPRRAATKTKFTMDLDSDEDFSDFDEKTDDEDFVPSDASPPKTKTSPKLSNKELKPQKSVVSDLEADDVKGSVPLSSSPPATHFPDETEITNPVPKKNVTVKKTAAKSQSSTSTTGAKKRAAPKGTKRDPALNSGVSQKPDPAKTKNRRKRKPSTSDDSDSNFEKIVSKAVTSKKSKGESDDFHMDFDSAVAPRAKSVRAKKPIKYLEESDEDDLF
Experimental: The decatenation assay was performed with the Human Topo II Decatenation Assay Kit (Inspiralis) according to the manufacturer's instructions with minor modifications. First, a master mix was made containing 2 μL 10× assay buffer (500 mM Tris.HCl, pH 7.5, 1250 mM NaCl, 100 mM MgCl2, 50 mM DTT, 1000 μg/mL albumin), 0.67 μL 30 mM ATP, 1.34 μL 0.1 ng/μL kDNA, and 14.3 μL of nuclease free water per sample is made. DMSO or 30× compound is added to a 0.5 mL Eppendorf tube (0.67 μL per tube). The master mix is then added to each tube (18.3 μL per tube). Finally, 1 U of human topoisomerase (1 μL of 1 U/μL stock) is added to each tube for a final volume of 20 μL. The tubes are then incubated at 37° C. for 30 min. Reactions are stopped by the addition of 20 μL of 24:1 chloroform:isoamyl alcohol and 20 μL of stop dye (40% sucrose, 1 mM EDTA, 100 mM TrisHCl pH 7.5, 0.5 μg/mL bromophenol blue). Samples were run on 1% agarose gels containing 0.5 μg/mL ethidium bromide for 1 h at 110V or until the dye front was approximately halfway down the gel. Gels were imaged on a Molecular Imager Gel Doc XR+ (Biorad).

[14] = subcutaneously, orally, or by IP injection; cited from earlier work
[15] = test system: K. pneuomoniae, S. aureus, or M. tuberculosis; details: mice infected with various bacteria; cited from earlier work
[16] = test system: MRSA clinical isolate SAU.493; experiment: microbe, parasite or virus in culture; format: cell-based, S. aureus; details: Staphylococcus aureus
Experimental: as §1

[17] = test system: MRSA clinical isolate SAU.709; experiment: microbe, parasite or virus in culture; format: cell-based, S. aureus; details: Staphylococcus aureus
Experimental: as §1

[18] = test system: MRSA clinical isolate SAU.489; experiment: microbe, parasite or virus in culture; format: cell-based, S. aureus; details: Staphylococcus aureus
Experimental: as §1

[19] = test system: MRSA clinical isolate SAU.491; experiment: microbe, parasite or virus in culture; format: cell-based, S. aureus; details: Staphylococcus aureus
Experimental: as §1

[20] = test system: MRSA clinical isolate SAU.708; experiment: microbe, parasite or virus in culture; format: cell-based, S. aureus; details: Staphylococcus aureus
Experimental: as §1

[21] = test system: MRSA clinical isolate SAU.710; experiment: microbe, parasite or virus in culture; format: cell-based, S. aureus; details: Staphylococcus aureus
Experimental: as §1

[22] = test system: MRSA clinical isolate SAU.492; experiment: microbe, parasite or virus in culture; format: cell-based, S. aureus; details: Staphylococcus aureus
Experimental: as §1

[23] = test system: MRSA clinical isolate SAU.495; experiment: microbe, parasite or virus in culture; format: cell-based, S. aureus; details: Staphylococcus aureus
Experimental: as §1

[24] = test system: MRSA clinical isolate SAU.496; experiment: microbe, parasite or virus in culture; format: cell-based, S. aureus; details: Staphylococcus aureus
Experimental: as §1

[25] = test system: MRSA clinical isolate SAU.1118; experiment: MIC, microdilution broth; format: cell-based, S. aureus; details: Staphylococcus aureus
Experimental: as §1

[26] = test system: MRSA clinical isolate SAU.3024; experiment: MIC, microdilution broth; format: cell-based, S. aureus; details: Staphylococcus aureus
Experimental: as §1

## Cc1cc(=O)n(C)c2c3c4c(cc12)c(C)cc(=O)n4C(C)O3 (stereo not drawn) [Compound 5]
[1]
  solubility: 3.4 mM (≈ 1010 µg/mL)
[2]
  MIC: 4 µg/mL (≈ 13.5 µM)

## CCc1cc(=O)n(C)c2c3c4c(cc12)c(CC)cc(=O)n4CO3 [Compound 13]
[1]
  solubility: 5.2 mM (≈ 1610 µg/mL)
[3]
  Solubility in pH 7.4 PBS: 48 μM
[2]
  MIC: > 32 µg/mL

## CO[C@@H]1[C@@H](OC(N)=O)[C@@H](O)[C@H](Oc2ccc3c(O)c(NC(=O)c4ccc(O)c(CC=C(C)C)c4)c(=O)oc3c2C)OC1(C)C [Novo, Novobiocin]
[4]; read-out: MIC
  MIC: 0.125 µg/mL (≈ 0.204 µM)
[5]
  MIC: 0.25 µg/mL (≈ 0.408 µM)
[6]
  MIC: 0.5 µg/mL (≈ 0.816 µM)
[7]
  MIC: 0.5 µg/mL (≈ 0.816 µM)
[8]
  MIC: 0.25 µg/mL (≈ 0.408 µM)
[9]
  MIC: 0.25 µg/mL (≈ 0.408 µM)
[10]
  MIC: 0.25 µg/mL (≈ 0.408 µM)
[11]
  MIC: 0.5 µg/mL (≈ 0.816 µM)

## CCc1cc(=O)n2c3c(c4c(cc13)c(C)cc(=O)n4C)OC2 [DNM-3]
[1]
  solubility: 1.3 mM (≈ 385 µg/mL)
[3]
  Solubility in pH 7.4 PBS: 27 μM
[12]; 50 mg kg^−1 oral dose
  AUC: 4000 ng·h/mL
  Cmax / peak serum concentration: 1260 ng/mL
[12]; 50 mg kg^−1 oral dose, read-out: Cmax / peak serum concentration
  Cmax: 4.3 µM
[12]; 50 mg kg^−1 oral gavage
  AUC: 4000 ng·h/mL
  Cmax: 1260 ng/mL
  Tmax: 1.1 h
  t1/2: 1.2 h
[2]
  MIC: 8 µg/mL (≈ 27 µM)

## COc1cccc2c1C(=O)c1c(O)c3c(c(O)c1C2=O)C[C@@](O)(C(=O)CO)C[C@@H]3O[C@H]1C[C@H](N)[C@H](O)[C@H](C)O1 [doxorubicin, reference compound]
[13]
  concentration inhibiting human topoisomerase II: 3 µM

## CCCc1cc(=O)n2c3c(c4c(cc13)c(C)cc(=O)n4C)OC2 [Compound 6]
[1]
  solubility: 6.4 mM (≈ 1990 µg/mL)
[2]
  MIC: 16 µg/mL (≈ 51.6 µM)

## Cc1cc(=O)n2c3c(c4c(cc13)c(CO)cc(=O)n4C)OC2 [nybomycin]
[14]
  tolerability in mice: well tolerated
[15]
  activity in infected mice: no activity

## CCCCCn1c(=O)cc(C)c2cc3c(C)cc(=O)n4c3c(c21)OC4 [Compound 9]
[1]
  solubility: 26.9 mM (≈ 9100 µg/mL)
[2]
  MIC: 32 µg/mL (≈ 94.6 µM)

## CN[C@H](CC(C)C)C(=O)N[C@H]1C(=O)N[C@@H](CC(N)=O)C(=O)N[C@H]2C(=O)N[C@H]3C(=O)N[C@H](C(=O)N[C@H](C(=O)O)c4cc(O)cc(O)c4-c4cc3ccc4O)[C@H](O)c3ccc(c(Cl)c3)Oc3cc2cc(c3O[C@@H]2O[C@H](CO)[C@@H](O)[C@H](O)[C@H]2O[C@H]2C[C@](C)(N)[C@H](O)[C@H](C)O2)Oc2ccc(cc2Cl)[C@H]1O [VANC, vancomycin, reference compound]
[16]
  MIC: 1 µg/mL (≈ 0.69 µM)
[4]
  MIC: 1 µg/mL (≈ 0.69 µM)
[17]
  MIC: 1 µg/mL (≈ 0.69 µM)
[18]
  MIC: 2 µg/mL (≈ 1.38 µM)
[19]
  MIC: 2 µg/mL (≈ 1.38 µM)
[20]
  MIC: 2 µg/mL (≈ 1.38 µM)
[21]
  MIC: 2 µg/mL (≈ 1.38 µM)
[22]
  MIC: 1 µg/mL (≈ 0.69 µM)
[23]
  MIC: 2 µg/mL (≈ 1.38 µM)
[24]
  MIC: 1 µg/mL (≈ 0.69 µM)
[2]
  MIC: 1 µg/mL (≈ 0.69 µM)
[5]
  MIC: 1 µg/mL (≈ 0.69 µM)
[6]
  MIC: 1 µg/mL (≈ 0.69 µM)
[25]
  MIC: 2 µg/mL (≈ 1.38 µM)
[26]
  MIC: 2 µg/mL (≈ 1.38 µM)
